Values after ≈ are worked out from the molar mass of the structure shown.
Experiments:
[1] = system: L. donovani intramacrophage amastigotes; experiment: L. donovani intramacrophage assay (amastigotes in differentiated THP-1 cells); format: cell-based, Leishmania donovani; settings: Leishmania donovani; L. donovani amastigotes in differentiated THP-1 cells; read-out: Intramacrophage EC50
Procedure: T. cruzi4, Leishmania donovani axenic amastigote, cidal axenic amastigote and intra-
macrophage drug sensitivity assays were conducted as previously described5,6. […]
5. Intrinsic clearance (CLint) […]
6. Pharmacokinetic studies. […]

[2] = biological target: T1, human purified 26S proteasome (Homo sapiens, UniProt P28074+P49721); experiment: Proteasome activity assay, chymotrypsin-like, purified human 26S; format: biochemical
T1 construct: purchased Boston Biochem
Procedure: Proteasome activity assays
Compounds were dispensed into black 384-well assay plates (Greiner) by acoustic dispensing (LabCyte ECHO). For potency determinations, eleven-point, one in three dilution curves were generated, with a top concentration of 100 µM. Three proteasome activities were measured using a commercially available indirect enzyme-based luminescent assay kit (Promega) with Suc-LLVY-aminoluciferin, Z-LRR-aminoluciferin and Z-nLPnLD-aminoluciferin used as substrates for chymotrypsin-like, trypsin-like and caspase-like activities, respectively. In addition to proteasome samples: L. donovani and THP1-enriched proteasomes, commercially available human purified 26S proteasome (Boston Biochem) was also assessed. Proteasome final assay concentration were 0.025 mg/ml for L. donovani and THP1-enriched proteasomes and 1 nM for human purified 26S proteasome. Proteasome solution was added to the plates containing the compounds one hour before adding the proteasome substrate solution.
Substrate solution was then added and after 30 min of incubation luminescent signal was measured in an Envision reader (PerkinElmer).

[3] = Intrinsic clearance in mouse liver microsomes; format: in vitro ADME
Procedure: page 13: 4. Parasite assays T. cruzi4, Leishmania donovani axenic amastigote, cidal axenic amastigote and intra- macrophage drug sensitivity assays were conducted as previously described5,6. a. […] Instead of a single readout at 72 h, multiple identical plates were used and read at different time points (24, 48, 72 h). Rate of kill curves showing the luminescence signal at each time point for each concentration were plotted. 5. […] The rate of intrinsic clearance (CLint) of each test compound was then calculated using the following calculation: CLint(mL/min/g liver) = k x V x Microsomal protein yield Where V (mL/mg protein) is the incubation volume/mg protein added and microsomal protein yield is taken as 52.5 mg protein/g liver. Verapamil (0.5 μM) was used as a positive control to confirm acceptable assay performance. 6. Pharmacokinetic studies. a. Mouse and dog PK Mouse pharmacokinetic studies were conducted in male CD-1 mice and male beagle dogs. 3 animals per group were used for each study performed. A dose of 3 mg/kg was administered intravenously, in a bolus form to mice and infused over a 30 min period to dogs. For all the intravenous studies compound were dissolved in 5% DMSO/20% kleptose in saline. A dose of 10 mg/kg was orally administered by gavage to the two species in a suspension of 1% methylcellulose to investigate oral pharmacokinetics. S13

[4] = system: L. donovani promastigotes; experiment: microbe, parasite or virus in culture; format: cell-based, Leishmania donovani
Procedure: 9. Mode of action studies a. Cell lines and culture conditions […]
c. Generation of drug-resistant parasites […]
donovani in the continuous presence of this compound. Starting at a sub-lethal […]
After a total of 120 days in
Genomic DNA was harvested from three independently generated L. donovani resistant clones and an age match control, as previously described27. PCR was performed using Platinum PCR Supermix (Invitrogen), as per manufacturer’s […]
generated using primers SubunitB4FW and SubunitB4RV, then sequenced using primer SubunitB4FW (Table S6). To sequence the β5 subunit (LdBPK_361730.1), an […]
sequenced using primer SubunitB5FW. PCR amplification and DNA sequencing were performed in triplicate for each independently generated cell line. The Leishmania donovani BPK282A1 sequences of the two subunits were identified in TriTrypDB and […]
e. Generation of overexpression constructs and LdBOB transgenic cell lines The genes encoding the mutated versions of the β4 (LdBPK_360340.1) and the β5 […]
parasites, were synthesised (GeneArt, Thermo Fischer Scientific). The synthetic genes, flanked by BamHI sites were cloned into the equivalent site of pIR1-SAT. The accuracy of all assembled constructs was verified by sequencing.
Mid-log-phase L. donovani promastigotes (LdBOB) were transfected with overexpression constructs using the Human T-Cell Nucleofector kit and the Amaxa Nucleofector electroporator (program V-033). Following transfection, cells were […]
to appropriate drug selection (100 µg/mL nourseothricin). Cloned cell lines were […]
selection for one passage prior to experiments. […]

[5] = system: THP-1 cells; experiment: Mammalian cell growth inhibition (THP-1); format: cell-based; settings: Homo sapiens
Description: We hypothesized that, in view of their structural similarity, 1 and 2 probably shared the same mechanism of action.

[6] = system: Salmonella typhimurium TA1535, TA1537, TA98, TA100 and Escherichia coli WP2uvrA(pKM101); experiment: Bacterial mutation screening assay (Ames test), overall outcome; format: cell-based; settings: presence and absence of S9-mix
Procedure: i. Bacterial Mutation (Ames) Assay
Compound 6 was tested in a bacterial mutation screening assay (Ames test) with Salmonella typhimurium TA1535, TA1537, TA98, TA100 and Escherichia coli WP2uvrA(pKM101) in the presence and absence of an exogenous mammalian oxidative metabolism system (S9-mix). The maximum concentration tested and […]
Compound 6a was tested in a bacterial mutation screening assay (Ames test) with […]
Compound 7a was tested in a bacterial mutation screening assay (Ames test) with […]
The bacterial mutation screening assay was a plate incorporation test carried out as previously described15 and according to current methodology. […]

[7] = CAD (charged aerosol detector) solubility
[8] = Solubility in fasted simulated intestinal fluid (FaSSIF); settings: fasted simulated intestinal fluid (FaSSIF), fassif
[9] = system: bloodstream T. brucei; experiment: T. brucei stem-loop RNAi knock-down lines, drug sensitivity; format: cell-based, Trypanosoma brucei; settings: for EC50: Trypanosoma brucei
Procedure: f. T. brucei RNAi constructs and cell lines
PCR primers (Table S6) were designed using RNAit28 to generate a 500-bp fragment conferring specific knockdown to Tb927.8.6620 (Table S7) and a 543-bp fragment of Tb927.9.15260 PCR fragments were cloned in the pRPaSLi construct for the generation of stem-loop dsRNA under the control of tetracycline as the trigger for RNAi28,29. Constructs were digested with AscI, EtOH-precipitated, and resuspended ([…]) in sterile water. 2T1 strains, containing a tetracycline repressor, were electroporated using program X-001 of the Nucleofector II electroporator (Amaxa, Cologne, Germany)30 following the addition of 5 µg of linearized DNA mixed in 100 µL of cytomix31. Transformants were cloned by limiting dilution under phleomycin (1 µg/mL) and hygromycin (2.5 µg/mL) selection. Puromycin susceptibility (1 µg/mL) was tested for full integration of the construct and expression of stem-loop RNAi was induced with concentrations of tetracycline ranging from […].
T. brucei RNA was isolated using an RNeasy purification kit (Qiagen) and cDNA-synthesized using a high capacity RNA-to-cDNA kit (Applied Biosystems). PCR primers (Table S6) were designed using the Premierbiosoft's Beacon Designer 6. qRT-PCRs […]
knock-down bloodstream trypanosomes. Transcript levels in trypanosomes where RNAi was induced by the addition of tetracycline (1 µg/mL, 24 h) were compared to wild-type (uninduced) levels. Relative levels of cDNA were normalized using the reference gene TERT (Tb927.11.10190, telomerase reverse transcriptase).
Compound 7, nM Compound 7, nM
Figure S4. Dose-response curves for compound 7 against cell lines where […]
(open circles) and induced (closed circles), respectively. […]
and 8.7 ± 0.3 nM for Tb927.8.6620RNAi uninduced (open circles) and induced (closed circles), respectively. Results are the means standard deviations of data from three […]

[10] = Leishmania donovani, RES II-resistant cells
[11] = Leishmania donovani, WT promastigotes

With `O=C(Nc1ccc(F)c(-c2ccn3c(N4CCOCC4)cnc3n2)c1)N1CCCC1` [Compound 8] as the molecule, how does the EC50 [1] read?
Its EC50 is 1600 nM.

And the IC50 [2]?
The IC50 was 13000 ± 880 nM.

What about the CLint [3] of the same molecule?
The CLint was 0.77 mL/min/g.

What about the “CLint (intrinsic clearance when incubated with mouse liver microsomes)” value [3] of the same molecule?
Its value is 0.8 mL/min per gram.

What about the EC50 [4, 10] of the same molecule?
Its EC50 is over 1000 nM.

What about the EC50 [4, 11] of the same molecule?
The EC50 was 14.6 ± 0.3 nM.

And the EC50 ([4]; WT promastigotes)?
Its EC50 is 14 nM.

And the EC50 [5]?
The EC50 was over 50000 nM.

What about the AMES [6] of the same molecule?
The AMES was “negative”.

What about the solubility [7] of the same molecule?
Its solubility is 231 µg/mL (≈ 563 µM).

What about the solubility [8] of the same molecule?
The solubility was 180 µg/mL (≈ 439 µM).

For `O=C(Nc1ccc(F)c(-c2cn3nc(-c4ccccc4)cnc3n2)c1)N1CCCC1` [Compound 7], which EC50 [1] is on record?
Its EC50 is 350 nM.

And the CLint [3]?
The CLint was 1.7 mL/min/g.

And the EC50 [4, 10]?
Its EC50 is over 1000 nM.

And the EC50 [4, 11]?
Its EC50 is 3.5 ± 0.09 nM.

And the EC50 ([4]; Leishmania donovani, WT, overexpression experiment (Fig. 3D))?
The EC50 was 9.4 ± 0.14 nM.

What about the EC50 ([4]; Leishmania donovani, β4MUT cells (overexpressing β4 T30A)) of the same molecule?
Its EC50 is 11.2 ± 0.2 nM.

And the EC50 ([4]; Leishmania donovani, β5MUT cells (overexpressing β5 G197C))?
The EC50 was 37.6 ± 0.6 nM.

And the “resistance of compound 7-resistant clones” value ([4]; resistant clones vs WT)?
Its value is over 100 fold.

And the “reduction of susceptibility on overexpression of mutated β5 subunit” value ([4]; β5 G197C overexpression vs WT)?
The value was “fourfold”.

What about the EC50 [5] of the same molecule?
Its EC50 is over 50000 nM.

And the solubility [7]?
Its solubility is 7 µg/mL (≈ 17.4 µM).

What about the EC50 ([9]; Tb927.8.6620 RNAi induced) of the same molecule?
The EC50 was 8.7 ± 0.3 nM.

And the EC50 ([9]; Tb927.8.6620 RNAi uninduced)?
The EC50 was 4.2 ± 0.2 nM.

And the EC50 ([9]; Tb927.9.15260 RNAi induced)?
The EC50 was 8 ± 0.4 nM.

What about the EC50 ([9]; Tb927.9.15260 RNAi uninduced) of the same molecule?
The EC50 was 4.1 ± 0.2 nM.

What about the “resistance conferred by RNAi knockdown” value ([9]; knockdown of Tb927.9.15260 and Tb927.8.6620) of the same molecule?
Its value is “approximately twofold”.

And the solubility [8]?
Its solubility is 1 µg/mL (≈ 2.48 µM).
